What was measured:
[1] = tested on: IL-1Ra production in human kidney proximal tubular cell line (HK-2); assay: IL-1Ra production in HK-2 cell culture media, ELISA; assay type: cell-based; details: HK-2 cells; for concentration of IL-1Ra: FIG. 1B
Method: Human kidney proximal cell line is commercially available and may be purchased, for example, from American Type Culture Collection (ATCC) under the symbol HK-2.
The immortalized human kidney proximal tubular cell line (HK-2) was cultured in DMEM/F12 containing 2.50 g/l HEPES, 1.80 g/l sodium bicarbonate, 100 U/ml penicillin, […] streptomycin, and 10% FCS at 37° C. in 5% CO2. After being digested with 0.25% trypsin, 1×10^5 cells were grown in 50 ml plastic culture bottles. The cells were cultured overnight in DMEM/F12 5% FCS; then, media were changed to fresh DMEM/F12 5% FCS containing diacerin with various concentrations of 2.0 μg/ml, 2.5 μg/ml, 3.0 μg/ml, 5.0 μg/ml, 10 μg/ml, 20 μg/ml, and negative (5% FCS) controls. Cultures were continued for further time points of 0 hour, 0.5 hour, 1 hour, 3 hours, 5 hours, 8 hours, 16 hours, 32 hours, and 72 hours. Upon reaching each time point, the media were collected. The cell culture method is well explained in Yao, et al, Preventive Effects of Salvianolic Acid on Transforming Growth Factorb 1-Induced Epithelial-to-Mesenchymal Transition of Human Kidney Cells, Biol. Pharm. Bull. 2009, 32(5) 882-886.
The collected media at each time point and concentration were assayed for IL-1Ra concentrations using ELISA assays.

[2] = tested on: IL-1 receptor antagonist (IL-1Ra); details: cartilage culture media; cited from earlier work
[3] = tested on: IL-1β; details: human OA cartilage and synovial tissue cultures; cited from earlier work
[4] = tested on: INS-1E cells; details: reported in the literature; positive control; cited from earlier work

Row | Compound | concentration of IL-1Ra ([1]; 5 μg/ml diacerin, 16 hours treatment) | concentration of IL-1Ra ([1]; 10 μg/ml diacerin, 16 hours treatment) | concentration of IL-1Ra ([1]; 20 μg/ml diacerin, 16 hours treatment) | concentration at which IL-1Ra production was first observed ([1]; 16 hours treatment) [µg/mL] | effect on IL-1Ra production ([1]; 16 hours treatment) | dose-dependent effect on production of IL-1Ra ([1]; 32 hours treatment) | dose-dependent effect on production of IL-1Ra ([1]; 72 hours treatment) | IL-1Ra levels [2] | IL-1β production [3] | IL-1β-induced INS-1E cell apoptosis [4]
1 | CC(=O)Oc1cccc2c1C(=O)c1c(OC(C)=O)cc(C(=O)O)cc1C2=O [diacerin, 4,5-bis(acetyloxy)-9,10-dioxo-2-anthracene carboxylic acid] | approximately 0.8 pg/ml | approximately 1.3 pg/ml | approximately 4.2 pg/ml | 5 | dose-dependently increased | diminished | diminished | increased | significantly inhibited | 
2 | O=C(O)c1cc(O)c2c(c1)C(=O)c1cccc(O)c1C2=O [rhein, 9,10-dihydro-4,5-dihydroxy-9,10-dioxo-2-anthracenecarboxylic acid] |  |  |  |  |  |  |  | increased | significantly inhibited | 
3 | Exendin-4: positive control, reported to inhibit IL-1β-induced INS-1E cell apoptosis |  |  |  |  |  |  |  |  |  | inhibit
